Experimental findings from ChEMBL document CHEMBL1201862, “PubChem BioAssay data set” (2004) are described below.

The term EC50 denotes the concentration giving half of the maximal effect. What is called AC50 is the concentration at which the activity in the assay is half-maximal. One may read the IC50 as the point on the concentration scale where inhibition reaches its midpoint.

Assay [1] in a line: A cytotoxicity screen of small molecule inhibitors of the PhoP region in Salmonella typhi identified in the primary screen. [Related pubchem assays: 1850, 1864, 1985 ]. In kind it is functional.
For assay [2], the target named is Luciferin 4-monooxygenase (Photinus pyralis, UniProt P08659). Briefly: firefly luciferase enzyme inhibitors, dose response, biochemical, luminescence (AID 1891).
A short description of assay [3]: Luminescence Cell-Based Dose Confirmation HTS to Identify Inhibitors of Platelet Dense Granule Release. [Related pubchem assays: 1663 (Primary HTS), 1678 (Summary of Project)]. In kind it is functional.
Assay [4] is described as follows: cytotoxicity toward DRD oncogenic fibroblasts, dose response, cell-based, non-viral oncogenic, luminescence (AID 1934). In kind it is functional. Conditions: Homo sapiens.
Assay [5] has as its system BJ. Briefly: cytotoxicity toward BJ-TERT fibroblasts, dose response, cell-based, RAS-independent, luminescence (AID 1933). In kind it is functional. Conditions: Homo sapiens.
Assay [6] relates to BJ. Briefly: cells. The format is functional, cell-based. Conditions: Homo sapiens.
Assay [7] concerns BJ. Briefly: cytotoxicity toward BJ-TERT-LT-ST fibroblasts, dose response, cell-based, RAS-independent, luminescence (AID 1935).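 Note: BJ fibroblasts immortalized with TERT plus LT and ST oncogenes.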 Conditions: Homo sapiens. In kind it is functional.
A further assay relates to INS1. The experiment in a line: beta cell apoptosis inhibitors, cytokine rescue, dose response, luminescence, retest (AID 449756).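 Note: cell death triggered by IL-1 beta plus TNF-alpha plus IFN-gamma mixture; protective hits raise ATP signal compared with cytokine alone wells.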 The format is functional, cell-based. Conditions: Rattus norvegicus.
Assay [8] in a line: control 3'UTR Renilla luciferase suppression, dose response, counter-screen for Shn3 inhibitor project, cell-based, Clone20-Shn3RL, cherry-picked (AID 624133). In kind it is functional. (In general: A counterscreen serves to expose hits that act by an unwanted route or on another target.)
Assay [9] in a line: Shn3 3'UTR reporter inhibitors, dose response, cell-based, Clone20 osteoblasts, firefly luciferase, cherry-picked (AID 624132).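 Note: firefly luciferase luminescence from reporter carrying the Shn3 3'UTR in osteoblasts.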 The format is functional.
Assay [10] is described as follows: HepG2 cell cytotoxicity, dose response, cytotoxicity control for Shn3 inhibitor project, CellTiter-Glo, cherry-picked (AID 624134). In kind it is functional, cell-based.
Assay [11] is described as follows: inhibitors of clade B AD8 Env fusion, dose response, cell-based, cherry-pick (AID 652062).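 Note: luciferase signal from cell-cell fusion driven by HIV-1 clade B AD8 Env; potency is for inhibitors of fusion seen as a drop in luminescence.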 In kind it is functional.
Assay [12] in a line: ZM109 Env clade C HIV-1 fusion inhibitors, dose response, HeLa effector, CEM target cells, luciferase, cherry-pick (AID 652058). In kind it is functional, cell-based.
Another assay has as its target Estrogen receptor beta (Homo sapiens, UniProt Q92731). The experiment in a line: ERβ–SRC-3 coactivator interaction inhibitors, confirmation, orthogonal assay, biochemical, ELISA, streptavidin-HRP readout (AID 1060). Background: In an ELISA, binding on a coated surface is turned into a signal by an enzyme label.
The target of another assay is T1, Estrogen receptor (Homo sapiens, UniProt P03372).
T1 sequence (P03372 whole entry): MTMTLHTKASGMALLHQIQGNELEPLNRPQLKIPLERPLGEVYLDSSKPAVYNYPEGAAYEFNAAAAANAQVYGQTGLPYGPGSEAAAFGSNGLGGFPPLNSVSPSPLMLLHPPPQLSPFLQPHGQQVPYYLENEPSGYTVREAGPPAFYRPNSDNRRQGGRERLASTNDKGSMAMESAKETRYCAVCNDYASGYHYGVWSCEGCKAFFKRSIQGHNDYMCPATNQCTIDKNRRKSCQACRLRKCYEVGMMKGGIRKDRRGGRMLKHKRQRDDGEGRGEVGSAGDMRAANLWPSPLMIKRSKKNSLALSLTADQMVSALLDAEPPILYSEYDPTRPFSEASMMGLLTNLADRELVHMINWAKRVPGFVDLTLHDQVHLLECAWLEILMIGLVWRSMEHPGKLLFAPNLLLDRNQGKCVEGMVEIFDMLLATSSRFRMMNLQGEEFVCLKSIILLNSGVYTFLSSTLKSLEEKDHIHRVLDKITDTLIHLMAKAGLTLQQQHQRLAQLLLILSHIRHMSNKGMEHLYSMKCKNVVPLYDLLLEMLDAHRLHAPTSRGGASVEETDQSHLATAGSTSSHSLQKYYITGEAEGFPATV

A short description of assay [13]: inhibitors of HIV Env-driven cell fusion, dose response, cherry-pick (AID 652057). In kind it is functional, cell-based.
In assay [14] the target is T2, Sentrin-specific protease 8 (Homo sapiens, UniProt Q96LD8).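 Note: luminescence read-out of SENP8 inhibition, dose-response confirmation following an ultra-high-throughput screen.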
T2 sequence (Q96LD8 whole entry): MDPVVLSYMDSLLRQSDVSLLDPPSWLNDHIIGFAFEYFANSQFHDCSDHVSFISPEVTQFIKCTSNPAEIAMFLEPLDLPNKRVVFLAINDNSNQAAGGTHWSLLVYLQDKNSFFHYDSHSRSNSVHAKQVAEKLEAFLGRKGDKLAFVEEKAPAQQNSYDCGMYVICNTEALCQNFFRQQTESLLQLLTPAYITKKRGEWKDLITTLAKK
In kind it is functional.

The target of assay [15] is T3, Sentrin-specific protease 6 (Homo sapiens, UniProt Q9GZR1).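 Note: Luminescence-based dose-response confirmatory assay of SENP6 inhibition, following up an ultra-high-throughput screen.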
T3 sequence (Q9GZR1 whole entry): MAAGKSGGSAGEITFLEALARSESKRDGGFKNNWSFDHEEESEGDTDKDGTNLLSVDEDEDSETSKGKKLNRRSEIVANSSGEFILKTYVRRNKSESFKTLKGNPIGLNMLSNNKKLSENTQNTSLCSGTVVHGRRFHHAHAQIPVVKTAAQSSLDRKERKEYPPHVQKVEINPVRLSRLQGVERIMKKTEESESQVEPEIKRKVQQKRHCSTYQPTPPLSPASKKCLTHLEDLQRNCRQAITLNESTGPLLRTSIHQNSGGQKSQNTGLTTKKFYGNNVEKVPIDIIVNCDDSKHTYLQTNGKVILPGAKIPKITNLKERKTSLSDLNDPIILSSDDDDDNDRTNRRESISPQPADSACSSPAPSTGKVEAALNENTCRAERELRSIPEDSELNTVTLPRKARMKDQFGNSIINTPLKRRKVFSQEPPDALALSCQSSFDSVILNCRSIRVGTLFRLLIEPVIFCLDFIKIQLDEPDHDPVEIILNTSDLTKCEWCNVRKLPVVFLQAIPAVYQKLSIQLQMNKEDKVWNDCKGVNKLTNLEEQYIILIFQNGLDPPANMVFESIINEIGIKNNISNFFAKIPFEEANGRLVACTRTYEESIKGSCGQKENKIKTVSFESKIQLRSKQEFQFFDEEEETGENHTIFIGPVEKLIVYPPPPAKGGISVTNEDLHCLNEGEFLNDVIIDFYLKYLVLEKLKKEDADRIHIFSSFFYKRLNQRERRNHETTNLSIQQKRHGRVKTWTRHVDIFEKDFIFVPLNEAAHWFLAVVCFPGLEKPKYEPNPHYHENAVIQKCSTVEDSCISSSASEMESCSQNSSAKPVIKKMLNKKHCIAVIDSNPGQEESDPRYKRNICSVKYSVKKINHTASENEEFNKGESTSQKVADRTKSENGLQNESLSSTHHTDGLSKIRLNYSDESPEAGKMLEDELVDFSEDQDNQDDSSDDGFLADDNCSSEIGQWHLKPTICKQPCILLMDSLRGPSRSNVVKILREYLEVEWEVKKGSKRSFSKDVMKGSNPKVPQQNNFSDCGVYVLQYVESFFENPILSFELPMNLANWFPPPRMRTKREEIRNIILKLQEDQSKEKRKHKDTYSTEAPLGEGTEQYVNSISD
In kind it is functional.

The target of assay [16] is T4, Sentrin-specific protease 7 (Homo sapiens, UniProt Q9BQF6).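 Note: Luminescence-based dose-response confirmation of ultra-high-throughput screening hits, measuring inhibition of SENP7.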
T4 sequence (Q9BQF6 whole entry): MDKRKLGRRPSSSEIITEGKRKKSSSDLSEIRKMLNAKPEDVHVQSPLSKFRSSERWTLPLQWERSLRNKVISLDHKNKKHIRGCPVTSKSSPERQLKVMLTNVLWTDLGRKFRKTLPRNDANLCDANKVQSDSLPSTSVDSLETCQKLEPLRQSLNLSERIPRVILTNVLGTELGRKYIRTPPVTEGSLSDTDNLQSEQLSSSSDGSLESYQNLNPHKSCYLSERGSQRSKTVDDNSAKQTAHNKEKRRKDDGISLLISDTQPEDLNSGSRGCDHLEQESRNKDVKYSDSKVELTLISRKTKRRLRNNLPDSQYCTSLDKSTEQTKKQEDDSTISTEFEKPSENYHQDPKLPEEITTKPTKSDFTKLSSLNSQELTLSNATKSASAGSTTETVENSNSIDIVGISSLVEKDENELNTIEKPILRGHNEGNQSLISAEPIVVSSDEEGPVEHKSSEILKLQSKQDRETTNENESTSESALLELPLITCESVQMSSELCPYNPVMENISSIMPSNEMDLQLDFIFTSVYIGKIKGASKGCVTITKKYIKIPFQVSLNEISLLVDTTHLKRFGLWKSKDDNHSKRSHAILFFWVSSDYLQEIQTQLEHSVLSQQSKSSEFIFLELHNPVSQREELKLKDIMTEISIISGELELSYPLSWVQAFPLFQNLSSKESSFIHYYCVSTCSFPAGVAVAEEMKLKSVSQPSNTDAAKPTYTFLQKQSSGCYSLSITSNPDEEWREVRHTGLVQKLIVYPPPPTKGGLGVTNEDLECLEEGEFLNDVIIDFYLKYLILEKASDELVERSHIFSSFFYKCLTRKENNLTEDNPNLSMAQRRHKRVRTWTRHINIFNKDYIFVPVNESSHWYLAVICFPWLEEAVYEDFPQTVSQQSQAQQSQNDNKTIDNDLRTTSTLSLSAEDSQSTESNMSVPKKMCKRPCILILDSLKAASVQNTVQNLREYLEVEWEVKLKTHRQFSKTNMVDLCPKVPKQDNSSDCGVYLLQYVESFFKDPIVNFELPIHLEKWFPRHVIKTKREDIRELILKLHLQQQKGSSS
The format is functional.

A short description of assay [17]: HepG2 cell cytotoxicity, dose response, cytotoxicity control, cherry-picked samples (AID 1159577). The format is functional, cell-based.
Assay [18] in a line: P. falciparum Dd2 growth inhibitors, dose response, SYBR Green, cherry-picked samples (AID 1159567). In kind it is functional, cell-based.

Calls of active or inactive are those of the source.

Sequence of Luciferin 4-monooxygenase (P08659 whole entry): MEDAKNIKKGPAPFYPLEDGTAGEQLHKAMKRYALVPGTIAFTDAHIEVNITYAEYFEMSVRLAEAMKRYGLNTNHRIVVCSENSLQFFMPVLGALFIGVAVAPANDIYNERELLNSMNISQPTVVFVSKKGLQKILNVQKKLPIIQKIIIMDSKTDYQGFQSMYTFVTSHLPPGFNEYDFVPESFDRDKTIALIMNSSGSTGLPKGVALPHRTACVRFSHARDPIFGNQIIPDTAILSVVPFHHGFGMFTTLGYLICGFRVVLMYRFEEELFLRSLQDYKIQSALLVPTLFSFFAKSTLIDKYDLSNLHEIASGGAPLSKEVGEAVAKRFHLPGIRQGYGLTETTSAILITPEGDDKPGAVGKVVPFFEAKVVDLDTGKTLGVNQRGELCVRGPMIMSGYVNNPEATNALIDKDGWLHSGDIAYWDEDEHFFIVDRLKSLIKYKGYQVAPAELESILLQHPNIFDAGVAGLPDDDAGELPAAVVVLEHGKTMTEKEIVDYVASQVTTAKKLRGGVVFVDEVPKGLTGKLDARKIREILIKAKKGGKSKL
Sequence of Estrogen receptor beta (Q92731 whole entry): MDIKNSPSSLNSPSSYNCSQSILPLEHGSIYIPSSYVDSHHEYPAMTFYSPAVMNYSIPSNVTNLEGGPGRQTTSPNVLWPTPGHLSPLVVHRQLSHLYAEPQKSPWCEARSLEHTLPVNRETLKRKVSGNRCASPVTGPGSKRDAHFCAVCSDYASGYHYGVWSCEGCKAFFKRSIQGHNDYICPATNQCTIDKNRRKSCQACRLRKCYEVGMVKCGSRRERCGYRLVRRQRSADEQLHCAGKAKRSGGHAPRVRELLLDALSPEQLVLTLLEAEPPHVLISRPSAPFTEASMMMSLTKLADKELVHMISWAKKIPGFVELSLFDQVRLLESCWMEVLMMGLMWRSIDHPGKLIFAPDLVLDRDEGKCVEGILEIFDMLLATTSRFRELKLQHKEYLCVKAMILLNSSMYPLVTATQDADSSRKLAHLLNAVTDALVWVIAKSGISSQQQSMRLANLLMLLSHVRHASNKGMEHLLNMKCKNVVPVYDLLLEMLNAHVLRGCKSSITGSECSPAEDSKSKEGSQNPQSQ

As to `Clc1ccc(CNCc2cccs2)cc1Cl`, in [1], the half-maximal effective concentration (EC50) was > 50 µM (active).

Regarding `O=C1NC(=O)C2(CCC(C(=O)O)C2)N1` (stereo unspecified), the EC50 in assay [2] and in assay [3] was > 112 µM (not active) each time.

Take `C=CCn1c(O)c(N=NC(=O)c2cccnc2)c2cc(Br)ccc21`: in [1], the EC50 is > 50 µM (active).

With `COc1cc(SC)ccc1C(=O)NNC(=O)c1cc(C)oc1C`, the EC50 in assay [4] is 3.82 µM (active); in the assay with BJ [5], 3.71 µM (inconclusive); in assay [2], 1.4 µM (active); with BJ [6] it was 6.06 µM (active); with BJ [7], 18.2 µM (active); in [3] it was 8.87 µM (active).

Turning to `Cc1ccc(C(=O)Nc2cccc3[nH]c(C(F)(F)F)nc23)cc1`, the AC50 in the assay with INS1 was 7.25 µM (active); in assay [8], 10.3 µM (active); in assay [9], 3.93 µM (active); in [10] it was 33.6 µM (active).

In the case of `COc1ccccc1-c1c(C(F)(F)F)n[nH]c1-c1ccc(O)cc1O`, the AC50 was 19 µM (active) in [11]; 0.97 µM (active) in [12]; 1.42 µM (active) in assay [8]; 0.708 µM (active) in [9]; > 70 µM (inactive) in assay [10].

As for `CCOC(=O)C1CCCN(C(=O)c2cc3ncc(Br)cn3n2)C1` (stereo unspecified), the IC50 on Estrogen receptor beta was 0.0694 µM (not active); on Estrogen receptor it was 20.7 µM (active).

For the compound `COc1ccc(NC(=O)c2cc(-c3ccc(C)o3)nc3ccccc23)cc1OC`, the 50% inhibitory concentration (IC50) at Estrogen receptor beta is recorded as 24.7 µM (not active).

`O=C(Nc1cccnc1)c1cc(Br)c(Br)s1`: the EC50 in assay [1] is > 50 µM (active).

`CCOC(=O)c1cc2cc([N+](=O)[O-])ccc2oc1=O`: the EC50 in assay [2] and in assay [3] was > 112 µM (not active) each time.

Turning to `O=C(NCN1CCN(c2ccccn2)CC1)c1cnccn1`, the EC50 in assay [2] and in assay [3] was > 112 µM (not active) each time.

Turning to `C[C@H](CO)N1C[C@H](C)[C@H](CN(C)S(=O)(=O)c2ccc(Cl)cc2)Oc2ccc(NC(=O)C3CCCCC3)cc2CC1=O`, the AC50 is 20.1 µM (active) in assay [11], 1.36 µM (active) in [13] and 2.13 µM (active) in [12].

As for `C[C@H](CO)N1C[C@H](C)[C@@H](CN(C)C(=O)Nc2cccc3ccccc23)OCCCC[C@H](C)Oc2ccc(N(C)C)cc2C1=O`, the AC50 in assay [12] was 24.8 µM (active).

For the compound `COc1ccccc1NC(=O)N[C@@H]1CC[C@H](CC(=O)N[C@H](C)c2ccccc2)O[C@@H]1CO`, the AC50 in assay [11] was 2.61 µM (active); in assay [13], 0.97 µM (active); in assay [12], < 0.26 µM (active).

Take `Cc1[nH]n(C(N)=S)c(=O)c1/N=N/c1ccccc1C(F)(F)F`: the IC50 in assay [14] is 15.5 µM (active); in assay [15], 18.9 µM (active); in assay [16] it was 12.7 µM (active).

Consider `C/C(=N\NC(=O)COc1ccccc1[N+](=O)[O-])c1cccs1`, for which the EC50 in assay [1] is > 50 µM (active).

For `COc1cccc(CN2CC3(CCN(CC4CC4)CC3)c3c([nH]c4cc(OC)ccc34)[C@H]2CO)c1`, the figures for the AC50 in assay [17] and in assay [18] were 19.7 µM (active) and 5 µM (active), respectively.

As to `COc1ccc(C#Cc2ccc([C@@H]3[C@H](CO)N4CCCCN(Cc5ccncc5)C[C@@H]34)cc2)cc1`, the AC50 in [17] was 13.6 µM (active); in assay [18], 0.949 µM (active).

For the compound `CC(C)N(C[C@H]1N[C@H](CO)[C@@H]1c1ccc(C2=CCCC2)cc1)C(=O)CN(C)C`, the results for the AC50 in [17] and in assay [18] were > 39 µM (inactive) and 5.21 µM (active), respectively.

Take `C[C@@H]1CN([C@H](C)CO)S(=O)(=O)c2ccc(/C=C/c3ccccc3)cc2O[C@H]1CN(C)Cc1cccnc1`: the figures for the AC50 in assay [17] and in assay [18] were 19.7 µM (active) and 3.7 µM (active), respectively.
